Source: ChEMBL document CHEMBL1201862, “PubChem BioAssay data set” (2004)
Calls of active or inactive are those of the source.

Columns and labels:
[1] = Luminescence Cell-Based Dose Retest to Confirm Inhibitors of Cancer Stem Cells. [Related pubchem assays (depositor defined):AID2717, AID2721]; format: functional; conditions: Homo sapiens
[2] = target: Phospholipase A2 (Homo sapiens, UniProt P04054); assay: PLA2 enzyme inhibitors, dose response, counter-screen for ATG4B inhibitor project, biochemical, set 2 (AID 588586); format: functional
[3] = target: Cysteine protease ATG4B (Homo sapiens, UniProt Q9Y4P1); assay: ATG4B protease inhibitors, dose response, biochemical, fluorescence, set 2 (AID 588584); format: functional
[4] = target: Keap1/Nrf2 (Homo sapiens, UniProt Q14145); assay: Keap1-Nrf2 protein-protein interaction inhibitors, dose response, biochemical, fluorescence polarization, cherry-picked samples (AID 588683)
[5] = target: T1, Corticotropin-releasing factor receptor 2/Corticotropin-releasing factor-binding protein (Homo sapiens, UniProt P24387+Q13324); assay: activators of CRF receptor 2 with binding protein – uHTS hits, confirmation (AID 602473); format: functional; conditions: read-out: EC50_Mean
T1 sequence (Q13324 whole entry): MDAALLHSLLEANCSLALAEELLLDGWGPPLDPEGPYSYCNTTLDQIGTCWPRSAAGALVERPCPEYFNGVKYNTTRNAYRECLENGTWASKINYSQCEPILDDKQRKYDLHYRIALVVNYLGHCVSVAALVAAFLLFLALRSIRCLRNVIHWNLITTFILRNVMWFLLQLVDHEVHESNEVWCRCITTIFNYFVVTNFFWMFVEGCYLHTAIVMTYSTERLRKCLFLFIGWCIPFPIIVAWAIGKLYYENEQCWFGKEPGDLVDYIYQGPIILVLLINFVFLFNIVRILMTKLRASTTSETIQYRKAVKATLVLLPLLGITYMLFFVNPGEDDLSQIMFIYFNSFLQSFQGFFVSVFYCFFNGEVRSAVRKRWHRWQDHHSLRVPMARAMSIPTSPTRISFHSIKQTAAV
T1 sequence (P24387 whole entry): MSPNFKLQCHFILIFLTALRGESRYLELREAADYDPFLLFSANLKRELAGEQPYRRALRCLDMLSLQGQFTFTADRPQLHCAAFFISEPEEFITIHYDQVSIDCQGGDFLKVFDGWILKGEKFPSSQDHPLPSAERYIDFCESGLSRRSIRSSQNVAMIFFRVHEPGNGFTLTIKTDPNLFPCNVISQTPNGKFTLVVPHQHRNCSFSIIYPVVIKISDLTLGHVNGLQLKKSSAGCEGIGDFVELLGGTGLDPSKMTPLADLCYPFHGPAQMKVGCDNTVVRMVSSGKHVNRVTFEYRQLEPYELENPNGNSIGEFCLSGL

[6] = target: T2, Fatty acid synthase (Homo sapiens, UniProt P49327); assay: FAS thioesterase domain inhibitors, dose response, biochemical, kinetic fluorescence intensity (AID 624326); format: functional;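 further: rate of fluorescence rise from hydrolysis of a fluorogenic O-methyl fluorescein ester substrate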
[7] = target: T1, Corticotropin-releasing factor receptor 2/Corticotropin-releasing factor-binding protein; assay: Dose Response confirmation of uHTS hits for small molecule antagonists of the CRF-binding protein and CRF-R2 receptor complex.; format: functional; conditions: read-out: IC50_Mean
[8] = target: T2, Fatty acid synthase; assay: FAS thioesterase domain inhibitors, dose response, biochemical, endpoint fluorescence intensity, uHTS hits (AID 624327); format: functional;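 further: fluorescence from hydrolysis of an O-methyl fluorescein acyl ester substrate by the enzyme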
[9] = target: T3, Tyrosine-protein phosphatase non-receptor type 7 (Homo sapiens, UniProt P35236); assay: HePTP (PTPN7) phosphatase inhibitor potency, SAR follow-up, biochemical, set 2 (AID 449736); format: functional
T3 sequence (P35236 whole entry): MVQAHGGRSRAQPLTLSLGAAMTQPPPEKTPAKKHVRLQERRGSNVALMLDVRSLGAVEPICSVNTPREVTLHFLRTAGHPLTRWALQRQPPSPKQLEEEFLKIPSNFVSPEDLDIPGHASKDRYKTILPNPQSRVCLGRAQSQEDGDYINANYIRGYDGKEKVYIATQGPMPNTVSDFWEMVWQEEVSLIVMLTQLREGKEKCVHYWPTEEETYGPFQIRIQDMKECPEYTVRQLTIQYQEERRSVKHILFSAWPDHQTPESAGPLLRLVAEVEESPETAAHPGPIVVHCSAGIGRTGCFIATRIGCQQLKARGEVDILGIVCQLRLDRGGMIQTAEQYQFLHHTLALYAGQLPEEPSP

[10] = target: T4, Tyrosine-protein phosphatase non-receptor type 22 (Homo sapiens, UniProt Q9Y2R2); format: functional
T4 sequence (Q9Y2R2 whole entry): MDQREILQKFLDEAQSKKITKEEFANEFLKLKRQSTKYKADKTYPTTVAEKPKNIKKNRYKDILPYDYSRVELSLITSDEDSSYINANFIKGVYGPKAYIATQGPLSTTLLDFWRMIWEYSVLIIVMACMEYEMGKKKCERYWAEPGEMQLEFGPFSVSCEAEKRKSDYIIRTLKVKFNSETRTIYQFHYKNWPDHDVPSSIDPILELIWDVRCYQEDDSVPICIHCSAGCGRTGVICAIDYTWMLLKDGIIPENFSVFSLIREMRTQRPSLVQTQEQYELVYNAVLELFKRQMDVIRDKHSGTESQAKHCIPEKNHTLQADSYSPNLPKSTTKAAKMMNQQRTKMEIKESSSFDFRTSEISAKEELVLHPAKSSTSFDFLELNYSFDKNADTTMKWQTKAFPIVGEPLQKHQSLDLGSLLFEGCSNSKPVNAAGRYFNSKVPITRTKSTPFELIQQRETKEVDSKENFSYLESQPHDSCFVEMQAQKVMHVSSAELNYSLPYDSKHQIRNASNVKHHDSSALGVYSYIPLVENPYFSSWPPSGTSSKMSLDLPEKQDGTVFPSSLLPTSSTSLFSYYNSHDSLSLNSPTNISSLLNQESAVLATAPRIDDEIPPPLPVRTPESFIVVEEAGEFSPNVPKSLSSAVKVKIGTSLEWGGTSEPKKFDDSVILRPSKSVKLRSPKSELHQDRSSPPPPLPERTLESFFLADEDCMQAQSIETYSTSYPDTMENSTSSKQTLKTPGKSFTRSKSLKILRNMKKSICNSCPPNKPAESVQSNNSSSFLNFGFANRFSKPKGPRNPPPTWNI

[11] = target: Tyrosine-protein phosphatase non-receptor type 12 (Homo sapiens, UniProt Q05209); assay: SAR Selectivity Analysis of small molecule inhibitors of PEST using pCAP in a fluorescence assay. [Related pubchem assays (depositor defined):AID1779, AID1784, AID2135]; format: functional
[12] = target: T5, Apoptotic protease-activating factor 1 (Homo sapiens, UniProt O14727); assay: activation of Apaf-1 mediated apoptosis – fluorescent, uHTS hits, dose response (AID 588554); format: functional
T5 sequence (O14727 whole entry): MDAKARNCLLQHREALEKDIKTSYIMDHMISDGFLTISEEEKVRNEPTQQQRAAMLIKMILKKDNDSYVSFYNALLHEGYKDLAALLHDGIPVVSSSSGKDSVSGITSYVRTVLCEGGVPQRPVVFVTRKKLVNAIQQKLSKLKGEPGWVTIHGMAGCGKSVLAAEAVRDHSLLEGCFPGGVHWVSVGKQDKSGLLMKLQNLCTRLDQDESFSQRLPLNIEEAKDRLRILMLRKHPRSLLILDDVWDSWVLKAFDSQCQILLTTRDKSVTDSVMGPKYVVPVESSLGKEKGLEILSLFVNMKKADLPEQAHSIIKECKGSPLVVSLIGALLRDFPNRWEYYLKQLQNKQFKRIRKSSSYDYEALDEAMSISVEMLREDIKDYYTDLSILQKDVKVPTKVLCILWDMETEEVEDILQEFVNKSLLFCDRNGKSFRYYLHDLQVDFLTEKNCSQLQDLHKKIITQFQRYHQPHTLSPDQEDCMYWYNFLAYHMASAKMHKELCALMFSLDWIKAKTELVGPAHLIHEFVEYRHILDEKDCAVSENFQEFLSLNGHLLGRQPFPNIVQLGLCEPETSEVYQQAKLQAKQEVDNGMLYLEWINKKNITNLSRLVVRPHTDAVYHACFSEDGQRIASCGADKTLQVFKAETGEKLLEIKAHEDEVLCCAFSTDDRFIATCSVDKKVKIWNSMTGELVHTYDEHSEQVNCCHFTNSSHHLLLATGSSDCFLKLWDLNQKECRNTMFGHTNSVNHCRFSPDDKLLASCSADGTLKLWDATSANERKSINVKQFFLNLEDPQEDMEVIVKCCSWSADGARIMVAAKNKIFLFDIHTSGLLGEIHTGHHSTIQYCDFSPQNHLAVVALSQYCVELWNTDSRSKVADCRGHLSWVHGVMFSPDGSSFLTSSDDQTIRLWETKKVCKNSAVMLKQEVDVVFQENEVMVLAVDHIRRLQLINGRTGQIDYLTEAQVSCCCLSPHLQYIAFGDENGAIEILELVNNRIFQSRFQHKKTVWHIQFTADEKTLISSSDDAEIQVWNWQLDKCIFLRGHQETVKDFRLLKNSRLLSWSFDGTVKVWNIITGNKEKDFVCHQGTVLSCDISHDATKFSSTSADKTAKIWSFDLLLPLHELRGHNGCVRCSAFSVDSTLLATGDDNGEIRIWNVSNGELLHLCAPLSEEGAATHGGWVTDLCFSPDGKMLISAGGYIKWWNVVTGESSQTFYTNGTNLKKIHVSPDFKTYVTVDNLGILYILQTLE

[13] = target: T4, Tyrosine-protein phosphatase non-receptor type 22; assay: inhibitors of LYP phosphatase, biochemical, fluorescence intensity, uHTS (AID 1779)
[14] = target: T6, Heat shock factor protein 1 (Mus musculus, UniProt P38532); assay: HSF1 potentiators in luciferase reporter cells, confirmation, cell-based, NIH3T3, luminescence, dose retest (AID 435004); format: functional;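 further: stress induced by proteasome inhibitor MG132 added 30 min after compound; luciferase reporter driven by HSF1 response element in NIH3T3 cells; actives raise luminescence as potentiators of the MG132 stress response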
T6 sequence (P38532 whole entry): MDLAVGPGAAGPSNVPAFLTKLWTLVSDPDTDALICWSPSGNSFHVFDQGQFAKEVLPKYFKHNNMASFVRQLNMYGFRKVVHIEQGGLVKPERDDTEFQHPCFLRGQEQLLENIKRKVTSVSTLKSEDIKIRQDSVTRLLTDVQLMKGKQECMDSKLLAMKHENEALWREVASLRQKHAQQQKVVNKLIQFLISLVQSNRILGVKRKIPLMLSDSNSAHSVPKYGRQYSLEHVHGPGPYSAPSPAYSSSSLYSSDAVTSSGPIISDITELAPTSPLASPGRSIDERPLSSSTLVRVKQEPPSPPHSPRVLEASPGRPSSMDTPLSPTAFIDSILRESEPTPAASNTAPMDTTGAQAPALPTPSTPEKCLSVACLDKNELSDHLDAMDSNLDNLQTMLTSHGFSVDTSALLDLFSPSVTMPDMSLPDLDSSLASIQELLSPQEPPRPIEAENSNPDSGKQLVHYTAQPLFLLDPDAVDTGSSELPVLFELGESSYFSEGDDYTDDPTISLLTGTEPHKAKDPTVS

[15] = target: T3, Tyrosine-protein phosphatase non-receptor type 7; format: functional
[16] = target: T4, Tyrosine-protein phosphatase non-receptor type 22; assay: SAR LYP1 Fluorescent Assay using OMFP substrate for In Vitro dose response studies - Set 3. [Related pubchem assays (depositor defined):AID1779, AID1784, AID2140, AID2686]; format: functional
[17] = target: T4, Tyrosine-protein phosphatase non-receptor type 22; assay: PubChem AID 2135
[18] = target: T4, Tyrosine-protein phosphatase non-receptor type 22; assay: SAR LYP1 Fluorescent Assay using pCAP substrate for In Vitro dose response studies - Set 2. [Related pubchem assays (depositor defined):AID1779, AID1784, AID2135, AID449727]; format: functional
[19] = target: T4, Tyrosine-protein phosphatase non-receptor type 22; assay: PubChem AID 2140
[20] = target: T4, Tyrosine-protein phosphatase non-receptor type 22; format: functional; remark: listed apart in the source
[21] = target: T4, Tyrosine-protein phosphatase non-receptor type 22; assay: SAR LYP1 Fluorescent Assay using OMFP substrate for In Vitro dose response studies - Set 2. [Related pubchem assays (depositor defined):AID1779, AID1784, AID2140, AID449726, AID488869]; format: functional
[22] = system: Escherichia coli; assay: microbe, parasite or virus in culture

T2 sequence (P49327 whole entry, the tested form may be a part): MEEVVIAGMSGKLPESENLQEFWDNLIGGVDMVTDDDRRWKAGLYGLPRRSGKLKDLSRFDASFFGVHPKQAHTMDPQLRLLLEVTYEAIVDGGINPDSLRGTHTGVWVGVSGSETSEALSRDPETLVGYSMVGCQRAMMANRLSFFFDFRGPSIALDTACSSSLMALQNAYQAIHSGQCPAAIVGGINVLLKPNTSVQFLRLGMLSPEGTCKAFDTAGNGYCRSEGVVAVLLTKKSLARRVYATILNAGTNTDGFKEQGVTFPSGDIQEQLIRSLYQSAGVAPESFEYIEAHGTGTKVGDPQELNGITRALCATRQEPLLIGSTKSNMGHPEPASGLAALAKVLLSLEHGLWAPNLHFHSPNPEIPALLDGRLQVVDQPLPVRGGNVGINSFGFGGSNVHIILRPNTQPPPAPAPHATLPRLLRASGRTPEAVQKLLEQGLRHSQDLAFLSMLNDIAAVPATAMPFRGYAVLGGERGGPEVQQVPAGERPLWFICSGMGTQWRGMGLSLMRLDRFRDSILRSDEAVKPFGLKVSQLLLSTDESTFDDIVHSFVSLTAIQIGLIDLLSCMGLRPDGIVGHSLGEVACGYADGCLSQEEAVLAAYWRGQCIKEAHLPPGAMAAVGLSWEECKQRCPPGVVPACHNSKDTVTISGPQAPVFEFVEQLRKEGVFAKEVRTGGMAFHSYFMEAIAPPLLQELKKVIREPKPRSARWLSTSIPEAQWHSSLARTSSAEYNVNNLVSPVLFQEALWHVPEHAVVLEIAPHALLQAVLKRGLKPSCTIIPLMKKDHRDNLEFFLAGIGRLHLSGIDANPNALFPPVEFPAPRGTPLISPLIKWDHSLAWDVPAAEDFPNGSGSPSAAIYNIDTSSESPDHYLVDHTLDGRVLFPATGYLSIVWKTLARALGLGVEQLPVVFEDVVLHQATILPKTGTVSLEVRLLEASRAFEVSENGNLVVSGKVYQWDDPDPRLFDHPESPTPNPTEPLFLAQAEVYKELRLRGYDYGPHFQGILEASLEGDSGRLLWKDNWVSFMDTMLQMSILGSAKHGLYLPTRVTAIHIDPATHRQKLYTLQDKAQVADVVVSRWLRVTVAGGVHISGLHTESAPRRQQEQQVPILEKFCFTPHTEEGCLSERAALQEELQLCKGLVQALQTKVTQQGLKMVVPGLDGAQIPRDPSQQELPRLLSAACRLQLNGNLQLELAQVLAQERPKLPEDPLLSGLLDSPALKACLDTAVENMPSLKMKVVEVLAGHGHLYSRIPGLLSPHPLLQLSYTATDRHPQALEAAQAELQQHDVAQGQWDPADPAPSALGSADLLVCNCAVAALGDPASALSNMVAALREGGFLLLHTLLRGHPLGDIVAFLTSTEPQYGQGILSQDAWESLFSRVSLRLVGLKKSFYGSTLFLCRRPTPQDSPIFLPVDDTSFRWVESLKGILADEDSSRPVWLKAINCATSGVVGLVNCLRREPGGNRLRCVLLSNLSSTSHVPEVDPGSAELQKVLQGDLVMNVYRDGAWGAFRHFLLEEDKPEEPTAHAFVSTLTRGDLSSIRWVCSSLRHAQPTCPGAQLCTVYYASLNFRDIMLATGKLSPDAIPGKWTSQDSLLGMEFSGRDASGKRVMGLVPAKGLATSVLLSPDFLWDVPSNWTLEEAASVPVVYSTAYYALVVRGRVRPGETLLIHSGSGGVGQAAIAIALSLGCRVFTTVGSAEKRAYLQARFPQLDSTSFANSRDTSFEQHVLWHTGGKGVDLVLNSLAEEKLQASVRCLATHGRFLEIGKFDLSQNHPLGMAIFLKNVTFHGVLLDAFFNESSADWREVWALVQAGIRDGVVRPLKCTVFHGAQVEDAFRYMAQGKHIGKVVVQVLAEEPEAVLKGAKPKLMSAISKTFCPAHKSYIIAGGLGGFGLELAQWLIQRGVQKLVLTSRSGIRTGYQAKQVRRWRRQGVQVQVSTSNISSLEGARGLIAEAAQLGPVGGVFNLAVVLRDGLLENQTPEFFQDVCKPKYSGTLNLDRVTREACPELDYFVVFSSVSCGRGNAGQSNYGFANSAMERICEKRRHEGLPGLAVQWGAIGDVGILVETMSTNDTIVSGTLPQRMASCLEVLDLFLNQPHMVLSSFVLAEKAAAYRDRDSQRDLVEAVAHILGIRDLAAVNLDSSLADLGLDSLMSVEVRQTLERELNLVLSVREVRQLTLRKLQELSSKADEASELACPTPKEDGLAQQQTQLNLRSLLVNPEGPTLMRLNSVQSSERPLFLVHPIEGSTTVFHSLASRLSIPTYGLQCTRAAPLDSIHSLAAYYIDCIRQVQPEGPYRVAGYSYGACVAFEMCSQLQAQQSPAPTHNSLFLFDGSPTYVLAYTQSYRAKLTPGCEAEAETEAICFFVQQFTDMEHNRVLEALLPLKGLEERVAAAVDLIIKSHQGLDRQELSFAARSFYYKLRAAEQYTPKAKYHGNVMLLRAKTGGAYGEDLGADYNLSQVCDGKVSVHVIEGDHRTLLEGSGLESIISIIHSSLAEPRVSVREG
Chain of Cysteine protease ATG4B (Q9Y4P1 whole entry): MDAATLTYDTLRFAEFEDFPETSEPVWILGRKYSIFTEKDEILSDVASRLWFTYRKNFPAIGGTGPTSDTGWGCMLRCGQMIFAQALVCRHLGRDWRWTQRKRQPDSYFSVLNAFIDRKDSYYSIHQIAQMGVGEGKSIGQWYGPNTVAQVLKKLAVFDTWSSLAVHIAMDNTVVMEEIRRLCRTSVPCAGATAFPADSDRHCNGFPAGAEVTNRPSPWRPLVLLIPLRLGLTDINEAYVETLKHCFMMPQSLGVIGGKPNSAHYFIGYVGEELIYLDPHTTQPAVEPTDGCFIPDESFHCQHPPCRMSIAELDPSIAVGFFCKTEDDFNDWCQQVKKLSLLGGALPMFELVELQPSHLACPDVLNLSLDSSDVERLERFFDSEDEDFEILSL
Chain of Phospholipase A2 (P04054 whole entry): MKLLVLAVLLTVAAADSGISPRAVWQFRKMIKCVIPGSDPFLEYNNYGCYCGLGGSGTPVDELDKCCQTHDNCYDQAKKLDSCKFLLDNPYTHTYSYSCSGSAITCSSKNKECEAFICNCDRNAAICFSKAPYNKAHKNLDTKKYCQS
Chain of Tyrosine-protein phosphatase non-receptor type 12 (Q05209 whole entry): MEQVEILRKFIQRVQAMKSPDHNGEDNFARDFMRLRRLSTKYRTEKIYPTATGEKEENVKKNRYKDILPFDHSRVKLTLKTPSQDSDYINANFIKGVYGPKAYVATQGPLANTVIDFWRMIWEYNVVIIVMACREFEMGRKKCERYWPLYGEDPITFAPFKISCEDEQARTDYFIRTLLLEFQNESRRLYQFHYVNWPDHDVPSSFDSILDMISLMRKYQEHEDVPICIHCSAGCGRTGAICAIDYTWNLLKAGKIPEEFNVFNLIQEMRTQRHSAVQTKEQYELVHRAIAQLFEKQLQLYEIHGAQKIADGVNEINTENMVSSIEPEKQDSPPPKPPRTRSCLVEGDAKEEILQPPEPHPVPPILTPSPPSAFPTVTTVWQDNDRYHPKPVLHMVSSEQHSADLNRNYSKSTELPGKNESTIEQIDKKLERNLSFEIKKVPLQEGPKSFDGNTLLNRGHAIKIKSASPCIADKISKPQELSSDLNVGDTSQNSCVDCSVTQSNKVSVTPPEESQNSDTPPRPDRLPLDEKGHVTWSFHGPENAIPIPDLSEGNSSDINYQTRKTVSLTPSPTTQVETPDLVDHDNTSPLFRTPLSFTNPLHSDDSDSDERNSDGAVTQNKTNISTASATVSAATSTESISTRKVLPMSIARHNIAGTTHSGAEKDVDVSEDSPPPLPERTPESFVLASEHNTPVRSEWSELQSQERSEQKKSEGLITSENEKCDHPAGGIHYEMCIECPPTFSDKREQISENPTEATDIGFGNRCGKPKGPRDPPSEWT
Chain of Keap1/Nrf2 (Q16236 whole entry): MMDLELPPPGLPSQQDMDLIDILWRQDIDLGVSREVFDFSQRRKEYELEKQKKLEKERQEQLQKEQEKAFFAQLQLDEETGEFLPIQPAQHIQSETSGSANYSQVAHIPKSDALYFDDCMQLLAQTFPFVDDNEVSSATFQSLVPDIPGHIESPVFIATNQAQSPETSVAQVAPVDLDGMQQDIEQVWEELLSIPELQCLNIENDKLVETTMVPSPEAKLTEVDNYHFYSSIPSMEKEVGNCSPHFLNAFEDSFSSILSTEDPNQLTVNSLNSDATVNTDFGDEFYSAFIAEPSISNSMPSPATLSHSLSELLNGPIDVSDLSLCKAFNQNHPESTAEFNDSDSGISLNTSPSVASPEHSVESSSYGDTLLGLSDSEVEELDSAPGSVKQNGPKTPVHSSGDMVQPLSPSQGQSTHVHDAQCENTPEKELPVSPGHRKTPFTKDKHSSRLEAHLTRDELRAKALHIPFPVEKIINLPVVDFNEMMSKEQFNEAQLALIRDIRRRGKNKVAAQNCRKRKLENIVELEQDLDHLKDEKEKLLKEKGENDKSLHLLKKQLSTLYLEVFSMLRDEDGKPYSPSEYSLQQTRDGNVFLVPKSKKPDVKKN
Chain of Keap1/Nrf2 (Q14145 whole entry): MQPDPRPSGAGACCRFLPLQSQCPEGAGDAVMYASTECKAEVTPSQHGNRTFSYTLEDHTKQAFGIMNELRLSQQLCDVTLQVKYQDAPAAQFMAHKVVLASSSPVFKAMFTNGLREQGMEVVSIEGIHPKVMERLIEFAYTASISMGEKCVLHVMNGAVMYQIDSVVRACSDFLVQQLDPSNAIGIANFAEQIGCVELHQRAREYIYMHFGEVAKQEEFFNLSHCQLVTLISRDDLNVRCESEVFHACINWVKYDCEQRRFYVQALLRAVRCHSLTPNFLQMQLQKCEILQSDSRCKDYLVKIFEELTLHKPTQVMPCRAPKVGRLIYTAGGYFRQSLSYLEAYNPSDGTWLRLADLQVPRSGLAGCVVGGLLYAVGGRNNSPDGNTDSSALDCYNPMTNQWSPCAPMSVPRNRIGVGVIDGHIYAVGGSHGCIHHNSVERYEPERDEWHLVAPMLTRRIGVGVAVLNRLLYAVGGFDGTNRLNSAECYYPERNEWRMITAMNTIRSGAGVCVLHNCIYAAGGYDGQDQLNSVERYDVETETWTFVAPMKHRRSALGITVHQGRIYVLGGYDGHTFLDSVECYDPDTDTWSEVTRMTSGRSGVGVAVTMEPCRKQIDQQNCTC

COc1ccc(OC)c(NC(=O)c2nnn(Cc3ccccc3C)c2N)c1
active: AC50 [1] 2.47 µM | IC50 [2] 13.4 µM | IC50 [3] 19.9 µM

COc1ccc(C(C)=NNc2ccc([N+](=O)[O-])cc2S(=O)(=O)Nc2ccccc2C(=O)O)c(OC)c1
active: AC50 [4] 25.7 µM | EC50 [5] 38.6 µM | IC50 [6] 9.07 µM | IC50 [7] 0.754 µM | IC50 [8] 13.3 µM

N#C/C(=C\c1ccc(OCc2ccc(Cl)cc2)cc1)C(=O)Nc1cccc(C(=O)O)c1
active: IC50 [9] 0.651 µM | IC50 [10] 6.86 µM | IC50 [11] 2.91 µM | EC50 [12] 20.8 µM | IC50 [13] 8.62 µM | EC50 [14] 10.9 µM | IC50 [15] 14.6 µM | IC50 [16] 4.74 µM | IC50 [17] 4.96 µM | IC50 [18] 6.54 µM | IC50 [19] 34.2 µM | IC50 [20] 6.42 µM | IC50 [21] 3.77 µM

CCn1c(=O)c2c3c(sc2n2c(S)nnc12)CCC3
active: AC50 [22] 24.2 µM
